The values below come from patent US8871767B2, “2-arylimidazo[1,2-B]pyridazine, 2-phenylimidazo[1,2-A]pyridine, and 2-phenylimidazo[1,2-A]pyrazine derivatives” (Hengrui (USA) Ltd., priority 2010, dated 2014).

The subject of the first experiment is Hedgehog pathway activation (GLi-luciferase reporter) in Shh Light II reporter cells. Nature of the experiment: Hedgehog pathway activation on Shh Light II reporter cells measured by luciferase activity. The experiment is classed as cell-based. The note with it: Mus musculus, Shh Light II, hShh activation, read-out: Shh (IC50, inhibition of Hedgehog pathway activation). How it is done: Hedgehog conditioned media was obtained by transfecting 293H cells with the full length gene encoding human Sonic Hedgehog (hShh) inserted into the pCMV6 expression vector, which contains a neomycin selectable marker and expresses the protein of interest with a C-terminal FLAG affinity tag. After selection in G418 containing media, conditioned media from Hedgehog expressing clones were tested for the ability to activate the hedgehog-responsive GLi-luciferase reporter in the Shh Light II cell line obtained by license from John Hopkins University (Taipale J, et al. Effects of oncogenic mutations in Smoothened and Patched can be reversed by cyclopamine. Nature 406: 1005-1009, 2000).
A test compound library was screened against hShh and 500 nM SAG (a direct agonist of the Smoothened receptor) activated 10T1/2/Smo#3 cells and Shh Light II reporter cells for the ability to block Hedgehog pathway activation. Concurrently, cell viability was measured by utilizing Celltiter-Blue® (Promega, Madison Wis.) viability assay. Active compounds were defined as those that inhibited Hedgehog signaling by greater than 50% with no concurrent loss in cell viability.
Their inhibitory activity against Hedgehog pathway activation on 10T1/2/Smo#3 cells as measured by ALP activity and Shh Light II reporter cells as measured by luciferase activity is shown in Table 1 below. In Table 1, +++ stands for an IC50 value that is less than 0.3 μM, ++ between 0.3 and 3 μM, + between 3 and 30 μM.
Additional data for compounds of the invention is shown below in Table 2. Their inhibitory activities against Hedgehog pathway activation are shown as IC50 values in μM on 10T1/2/Smo#3 cells as measured by ALP activity, or on Shh Light II reporter cells as measured by luciferase activity (hShh activation).
In general, IC50 refers to the midpoint of a concentration-inhibition curve. Turning to `CC(C)(C)C(=O)Nc1cc(-c2cn3nc(N4CCCC(O)C4)ccc3n2)ccc1C(F)(F)F` (stereo not drawn) [Example 336, N-(5-(6-(3-hydroxypiperidin-1-yl)imidazo[1,2-b]pyridazin-2-yl)-2-(trifluoromethyl)phenyl)pivalamide], the IC50 was 230 nM.
On the same count and under the same terms, the result for `COc1ccc(F)c(-c2ccc3nc(-c4ccc(C(F)(F)F)c(NC(=O)C(C)(C)C)c4)cn3n2)c1` [Example 228, N-(5-(6-(2-fluoro-5-methoxyphenyl)imidazo[1,2-b]pyridazin-2-yl)-2-(trifluoromethyl)phenyl)pivalamide] reads 325 nM; that for `Cc1ccc(-c2cn3nc(-c4ccc(O)cc4Cl)ccc3n2)cc1NC(=O)C(C)(C)C` [compound 548], 763 nM; that for `Cc1ccc(-c2cn3nc(C4=CCCCC4)ccc3n2)cc1NC(=O)C(C)(C)C` [Example 443, N-(5-(6-cyclohexenylimidazo[1,2-b]pyridazin-2-yl)-2-methylphenyl)pivalamide], 1880 nM.
Same read-out and setting: the result for `CC(C)(C)C(=O)Nc1cc(-c2cn3nc(N4CC(F)(F)C4)ccc3n2)ccc1C(F)(F)F` [Example 315, N-(5-(6-(3,3-difluoroazetidin-1-yl)imidazo[1,2-b]pyridazin-2-yl)-2-(trifluoromethyl)phenyl)pivalamide] reads 807 nM.
With `CC(C)(C)C(=O)Nc1cc(-c2cn3nc(N4CCNCC4)ccc3n2)ccc1C(F)(F)F` [Example 328, N-(5-(6-(piperazin-1-yl)imidazo[1,2-b]pyridazin-2-yl)-2-(trifluoromethyl)phenyl)pivalamide], the IC50 was 3540 nM.
Same read-out and setting: the result for `CC(C)(C)C(=O)Nc1cc(-c2cn3nc(-c4cccs4)ccc3n2)ccc1C(F)(F)F` [Example 230, N-(5-(6-(thiophen-2-yl)imidazo[1,2-b]pyridazin-2-yl)-2-(trifluoromethyl)phenyl)pivalamide] reads 1550 nM; that for `Cc1ccc(-c2cn3nc(-c4ccc(N)cc4)ccc3n2)cc1NC(=O)C(C)(C)C` [compound 550], 418 nM.
Same read-out and setting: the result for `CCOC(=O)CC(=O)Nc1cc(-c2cn3nc(-c4cccnc4C(F)(F)F)ccc3n2)ccc1C` [Example 435, ethyl 3-(2-methyl-5-(6-(2-(trifluoromethyl)pyridin-3-yl)imidazo[1,2-b]pyridazin-2-yl)phenylamino)-3-oxopropanoate] reads 1270 nM.
Turning to `CCOC(=O)C=Cc1cccc(C(=O)Nc2cc(-c3cn4nc(C=CC(=O)OCC)ccc4n3)ccc2C)c1` [compound 610], the IC50 came out at 465 nM.
With `CCOC(=O)CCCOc1cc(-c2ccc3nc(-c4ccc(C)c(NC(=O)C(C)(C)C)c4)cn3n2)cc(C(F)(F)F)n1` [Example 431, ethyl 4-(4-(2-(4-methyl-3-pivalamidophenyl)imidazo[1,2-b]pyridazin-6-yl)-6-(trifluoromethyl)pyridin-2-yloxy)butanoate], the IC50 is 422 nM.
On the same count and under the same terms, the result for `CCOC(=O)CCC(=O)Nc1cc(-c2cn3nc(-c4cccnc4C(F)(F)F)ccc3n2)ccc1C` [Example 436, ethyl 4-(2-methyl-5-(6-(2-(trifluoromethyl)pyridin-3-yl)imidazo[1,2-b]pyridazin-2-yl)phenylamino)-4-oxobutanoate] reads 975 nM.
Still for that read-out and setting: the result for `Cc1nc(-c2ccc(-c3ccc4nc(-c5ccc(C)c(NC(=O)C(C)(C)C)c5)cn4n3)cc2)no1` [compound 549] reads 204 nM; that for `Cc1ccc(-c2cn3nc(-c4ccc(O)cc4C(F)(F)F)ccc3n2)cc1NC(=O)C(C)(C)C` [Example 409, N-(5-(6-(4-hydroxy-2-(trifluoromethyl)phenyl)imidazo[1,2-b]pyridazin-2-yl)-2-methylphenyl)pivalamide], 236 nM.

The same experiment, now with this note: hShh activation, read-out: Shh (IC50, inhibition of Hedgehog pathway activation).
In the case of `Cc1ccc(-c2cn3nc(-c4cccnc4C(F)(F)F)ccc3n2)cc1NC(=O)CCCCCCC(=O)O` [compound 553, 8-((2-methyl-5-(6-(2-(trifluoromethyl)pyridin-3-yl)imidazo[1,2-b]pyridazin-2-yl)phenyl)amino)-8-oxooctanoic acid], the IC50 stood at 701 nM.
